Reference: the supplement of paper PMC10307832

Experiments:
Experiment in all cases: relative viability (nuclei count vs DMSO), 5 days (fraction); higher = more cells survive
[1] = compound: C[C@@H](N)c1ccc(C(=O)Nc2ccnc3[nH]ccc23)cc1 + COc1cccc2cc(-c3nc([C@H]4CC[C@H](C(=O)O)CC4)n4ncnc(N)c34)[nH]c12 [OSI-027] (partner 0.5 µM)
Procedure, shortened: (§1)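 Relative viability divides the nuclei count in treated wells by that in vehicle wells. Lung cancer cell lines were seeded in 1536-well plates, dosed by pin tool the next day, and fixed and stained after 5 days in one step with final 0.05% Triton X-100, 1% formaldehyde and 1 ug/ml Hoechst. Dosing was a single drug or a fixed anchor-drug dose plus five library-drug doses (not always all listed) in √10 steps, and values are medians of duplicate plates imaged at 4×.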

[2] = compound: C[C@@H](N)c1ccc(C(=O)Nc2ccnc3[nH]ccc23)cc1 + Nc1nc2[nH]cc(CCc3ccc(C(=O)N[C@@H](CCC(=O)O)C(=O)O)cc3)c2c(=O)[nH]1 [Pemetrexed] (partner 0.2 µM)
Procedure, shortened: as §1

[3] = compound: C1CNCCC1C2=CC(=NN2)C3=CC=NC=C3 + Cc1nc(NC(=O)N2CCC[C@H]2C(N)=O)sc1-c1ccnc(C(C)(C)C(F)(F)F)c1 [Alpelisib] (partner 2 µM)
Procedure, shortened: as §1

[4] = compound: C1CNCCC1C2=CC(=NN2)C3=CC=NC=C3 + Cc1nc(Nc2ncc(C(=O)Nc3c(C)cccc3Cl)s2)cc(N2CCN(CCO)CC2)n1 [Dasatinib] (partner 0.075 µM)
Procedure, shortened: as §1

Cell Line	relative viability ([1]; first compound 0.04 µM)	relative viability ([1]; first compound 0.1265 µM)	relative viability ([1]; first compound 0.4 µM)	relative viability ([1]; first compound 1.265 µM)	relative viability ([1]; first compound 4 µM)	relative viability ([2]; first compound 0.04 µM)	relative viability ([2]; first compound 0.1265 µM)	relative viability ([2]; first compound 0.4 µM)	relative viability ([2]; first compound 1.265 µM)	relative viability ([2]; first compound 4 µM)	relative viability ([3]; first compound 0.08 µM)	relative viability ([3]; first compound 0.8 µM)	relative viability ([3]; first compound 2.53 µM)	relative viability ([3]; first compound 8 µM)	relative viability ([4]; first compound 0.08 µM)	relative viability ([4]; first compound 0.8 µM)	relative viability ([4]; first compound 2.53 µM)	relative viability ([4]; first compound 8 µM)
NCI-H1944	0.409	0.368	0.397	0.26	0.384	0.594	0.605	0.73	0.596	0.611	0.85	0.601	0.83	0.938	0.201	0.206	0.231	0.232
NCI-H358	0.816	1.07	0.855	0.794	0.701	0.183	0.189	0.18	0.165	0.16	0.588	0.831	0.839	0.845	0.118	0.16	0.149	0.143
NCI-H1734	0.627	0.611	0.549	0.315	0.563	0.405	0.419	0.385	0.362	0.39	0.684	0.618	0.768	0.706	0.424	0.533	0.527	0.529
A-427	0.407	0.392	0.509		0.466	0.827	0.985	0.815	0.671	0.726	1.05	1.04	1.07	1.06	0.639	0.751	0.731	0.703
RERF-LC-KJ	0.555	0.628	0.591	0.672	0.6	0.496	0.486	0.472	0.47	0.424	0.803	0.709	0.963	0.89	0.795	0.934	0.893	0.778
LCLC-97TM1	0.69	0.587	0.625	0.384	0.701	0.207	0.188	0.172	0.0771	0.21	0.224	0.205	0.241	0.225	0.875	0.784	0.923	0.758
BEN	0.293	0.307	0.3	0.314	0.284	0.556	0.711	0.701	0.877	0.634	0.712	1.07	0.936	0.984	0.266	0.286	0.339	0.326
NCI-H2023	0.475	0.435	0.569	0.476	0.509	0.226	0.262	0.211		0.245	0.539	0.5	0.573	0.613	0.48	0.661	0.583	0.567
LC-2-ad	0.763	0.893	0.858		0.625	0.263	0.267	0.248	0.279	0.259	0.791	0.751	0.913	0.934		0.647	0.761	0.739
NCI-H647	0.597	0.611	0.586	0.574	0.501	0.199	0.2	0.24	0.166	0.145	0.969	1.12	1.31	1.22	0.176	0.169	0.187	0.161
NCI-H1755	0.606	0.815	0.758	0.638	0.587	0.433	0.527	0.448	0.425	0.471	0.938	0.837	0.906	0.863	0.483		0.474	0.399
EPLC-272H	0.285	0.308	0.308	0.244	0.293	0.251	0.339	0.312	0.238	0.225	0.99	0.774	0.953	0.983	0.392	0.348	0.393	0.415
NCI-H1437	0.947	0.838	0.853	1	0.919	0.3	0.307	0.351	0.329	0.34	0.941	0.979	0.999	0.928	0.464	0.381	0.406	0.45
EKVX	0.609	0.798	0.832	0.761	0.727	0.365	0.383	0.566	0.354	0.379	0.738	0.573	1.03	0.818	0.576	0.565	0.645	0.525
NCI-H1651	0.901	0.817	0.888	1.05	0.802	0.628	0.584	0.663	0.611	0.706	0.767	1.09	0.904	1	0.381	0.404	0.348	0.486
HCC-15	0.695	0.632	0.681		0.619	0.242	0.242	0.209	0.212	0.233	0.856	0.856	0.898	0.839	0.556	0.646	0.639	0.609
LCLC-103H	0.416	0.453	0.438	0.463	0.432	0.417	0.426	0.493	0.51	0.407	1.05	0.966	1.05	1	0.462	0.505	0.396	0.537
NCI-H23	0.603	0.577	0.592		0.674	0.619	0.744	0.848		0.754	0.614	0.691	0.713	0.69	0.826	0.808	0.805	0.908
